Data published in patent publication US6355799B1, “Substituted benzene compounds, process for their preparation, and herbicidal and defoliant compositions containing them” (ISK Americas Incorporated, priority 1997, dated 2002).

Columns and labels:
Assay type in all cases: in vivo
[1] = test system: johnsongrass (Sorghum halepense, SORHA); assay: Pre-emerge test, greenhouse herbicide activity screening; conditions: pre-emerge, 14 days after application, rating scale 0-100
Method in brief: (§1)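 Compounds in acetone were track-sprayed at 187 l/ha, 15–1000 g ai/ha, onto sandy loam pots. Pre-emerge seeds were sown one day before spraying, with surface watering afterwards. Post-emerge plants were at the 2–3 leaf stage and sprayed with 0.25% v/v non-ionic surfactant. Injury was rated 0–100 at 14 days.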

[2] = test system: large crabgrass (Digitaria sanguinalis, DIGSA); assay: as above; conditions: pre-emerge, 14 days after application, rating scale 0-100
Method in brief: as §1

[3] = test system: sicklepod (Cassia obtusifolia, CASOB); assay: as above; conditions: pre-emerge, 14 days after application, rating scale 0-100
Method in brief: as §1

[4] = test system: ivyleaf morningglory (Ipomoea hederacea, IPOHE); assay: as above; conditions: pre-emerge, 14 days after application, rating scale 0-100
Method in brief: as §1

[5] = test system: green foxtail (Setaria viridis, SETVI); assay: as above; conditions: pre-emerge, 14 days after application, rating scale 0-100
Method in brief: as §1

[6] = test system: lambsquarters (Chenopodium album, CHEAL); assay: as above; conditions: pre-emerge, 14 days after application, rating scale 0-100
Method in brief: as §1

[7] = test system: velvetleaf (Abutilon theophrasti, ABUTH); assay: as above; conditions: pre-emerge, 14 days after application, rating scale 0-100
Method in brief: as §1

[8] = test system: barnyardgrass (Echinochloa crus-galli, ECHCG); assay: as above; conditions: pre-emerge, 14 days after application, rating scale 0-100
Method in brief: as §1

[9] = test system: upland rice (Oryza sp., var. Tebonnet, RICE); assay: Post-emerge test, crop safety; conditions: post-emerge, 14 days after application, rating scale 0-100
Method in brief: as §1

[10] = test system: field corn (Zea mays L., var. Dekalb 535, CORN); assay: Post-emerge test, crop safety; conditions: post-emerge, 14 days after application, rating scale 0-100
Method in brief: as §1

[11] = test system: upland rice (Oryza sp., var. Tebonnet, RICE); assay: Pre-emerge test, crop safety; conditions: pre-emerge, 14 days after application, rating scale 0-100
Method in brief: (§2)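 Herbicidal damage is scored 0 (none) to 100 (complete plant death) two weeks after a simulated field spray. Rates span 15–1000 g ai/ha, delivered in acetone at 187 l/ha. For post-emergence treatments, plants have 2–3 leaves and the spray carries 0.25% v/v non-ionic surfactant.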

[12] = test system: field corn (Zea mays L., var. Dekalb 535, CORN); assay: Pre-emerge test, crop safety; conditions: pre-emerge, 14 days after application, rating scale 0-100
Method in brief: as §2

[13] = test system: johnsongrass (Sorghum halepense, SORHA); assay: Post-emerge test, greenhouse herbicide activity screening; conditions: post-emerge, 14 days after application, rating scale 0-100
Method in brief: as §2

[14] = test system: large crabgrass (Digitaria sanguinalis, DIGSA); assay: as above; conditions: post-emerge, 14 days after application, rating scale 0-100
Method in brief: as §2

[15] = test system: sicklepod (Cassia obtusifolia, CASOB); assay: as above; conditions: post-emerge, 14 days after application, rating scale 0-100
Method in brief: as §2

[16] = test system: ivyleaf morningglory (Ipomoea hederacea, IPOHE); assay: as above; conditions: post-emerge, 14 days after application, rating scale 0-100
Method in brief: as §2

[17] = test system: green foxtail (Setaria viridis, SETVI); assay: as above; conditions: post-emerge, 14 days after application, rating scale 0-100
Method in brief: as §2

[18] = test system: velvetleaf (Abutilon theophrasti, ABUTH); assay: as above; conditions: post-emerge, 14 days after application, rating scale 0-100
Method in brief: as §2

[19] = test system: redroot pigweed (Amaranthus retroflexus, AMARE); assay: as above; conditions: post-emerge, 14 days after application
Method in brief: as §2

[20] = test system: barnyardgrass (Echinochloa crus-galli, ECHCG); assay: as above; conditions: post-emerge, 14 days after application, rating scale 0-100
Method in brief: as §2

[21] = test system: redroot pigweed (Amaranthus retroflexus, AMARE); assay: Pre-emerge test, greenhouse herbicide activity screening; conditions: pre-emerge, 14 days after application, rating scale 0-100
Method in brief: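 Compounds in acetone were track-sprayed at 15-1000 g ai/ha (187 l/ha) on sandy loam pots: pre-emerge one day after seeding, post-emerge at 2-3 leaf stage with 0.25% v/v non-ionic surfactant. Phytotoxicity was rated 14 days later on a 0 (no damage) to 100 (complete death) scale.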

[22] = 63 g ai/ha, rating scale 0-100 (0 no damage, 100 complete death)
[23] = 250 g ai/ha, rating scale 0-100

COc1c(Cl)cc(F)c(-n2c(=O)cc(C(F)(F)F)n(C)c2=O)c1NN=CC(C)c1ccccc1 (stereo not drawn) [15-17]
40: Post-emerge Herbicidal Activity DIGSA (phytotoxicity rating) ([14]; 63 g ai/ha) | Post-emerge Herbicidal Activity SETVI (phytotoxicity rating) ([17]; 63 g ai/ha)
95: phytotoxicity rating CORN ([12]; 250 g ai/ha) | Post-emerge Herbicidal Activity SORHA (phytotoxicity rating) ([13]; 250 g ai/ha)
20: Post-emerge Herbicidal Activity SORHA (phytotoxicity rating) ([13]; 63 g ai/ha)
100: phytotoxicity rating SORHA ([1]; 63 g ai/ha) | phytotoxicity rating SORHA ([1]; 250 g ai/ha) | phytotoxicity rating DIGSA ([2]; 63 g ai/ha) | phytotoxicity rating DIGSA ([2]; 250 g ai/ha) | phytotoxicity rating CASOB ([3]; 63 g ai/ha) | phytotoxicity rating CASOB ([3]; 250 g ai/ha) | phytotoxicity rating IPOHE ([4]; 63 g ai/ha) | phytotoxicity rating IPOHE ([4]; 250 g ai/ha) | phytotoxicity rating SETVI ([5]; 63 g ai/ha) | phytotoxicity rating SETVI ([5]; 250 g ai/ha) | phytotoxicity rating CHEAL ([6]; 63 g ai/ha) | phytotoxicity rating CHEAL ([6]; 250 g ai/ha) | phytotoxicity rating ABUTH ([7]; 63 g ai/ha) | phytotoxicity rating ABUTH ([7]; 250 g ai/ha) | phytotoxicity rating ECHCG ([8]; 63 g ai/ha) | phytotoxicity rating ECHCG ([8]; 250 g ai/ha) | phytotoxicity rating RICE ([11]; 63 g ai/ha) | phytotoxicity rating RICE ([11]; 250 g ai/ha) | Post-emerge Herbicidal Activity CASOB (phytotoxicity rating) ([15]; 250 g ai/ha) | Post-emerge Herbicidal Activity IPOHE (phytotoxicity rating) ([16]; 63 g ai/ha) | Post-emerge Herbicidal Activity IPOHE (phytotoxicity rating) ([16]; 250 g ai/ha) | Post-emerge Herbicidal Activity ABUTH (phytotoxicity rating) ([18]; 63 g ai/ha) | Post-emerge Herbicidal Activity ABUTH (phytotoxicity rating) ([18]; 250 g ai/ha) | Post-emerge Herbicidal Activity AMARE (phytotoxicity rating) [19, 23] | phytotoxicity rating AMARE ([21]; 63 g ai/ha) | phytotoxicity rating AMARE ([21]; 250 g ai/ha)
99: Post-emerge Herbicidal Activity DIGSA (phytotoxicity rating) ([14]; 250 g ai/ha) | Post-emerge Herbicidal Activity ECHCG (phytotoxicity rating) ([20]; 250 g ai/ha)
50: Post-emerge Herbicidal Activity ECHCG (phytotoxicity rating) ([20]; 63 g ai/ha)
35: Post-emerge Herbicidal Activity CORN (crop damage rating) ([10]; 63 g ai/ha)
75: Post-emerge Herbicidal Activity RICE (crop damage rating) ([9]; 63 g ai/ha)
80: Post-emerge Herbicidal Activity CORN (crop damage rating) ([10]; 250 g ai/ha) | phytotoxicity rating CORN ([12]; 63 g ai/ha) | Post-emerge Herbicidal Activity CASOB (phytotoxicity rating) ([15]; 63 g ai/ha)
90: Post-emerge Herbicidal Activity RICE (crop damage rating) ([9]; 250 g ai/ha) | Post-emerge Herbicidal Activity SETVI (phytotoxicity rating) ([17]; 250 g ai/ha) | Post-emerge Herbicidal Activity AMARE (phytotoxicity rating) [19, 22]

COc1c(Cl)cc(F)c(-n2c(=O)cc(C(F)(F)F)n(C)c2=O)c1NNC(=O)C1CC1 [Compound 15-2, 3-[4-chloro-2-(2-cycopropanecarbonyldiazanyl)-6-fluoro-3-methoxyphenyl]-1-methyl-6-trifluoromethyl-2,4(1H, 3H)-pyrimidinedione]
100: phytotoxicity rating SORHA ([1]; 63 g ai/ha) | phytotoxicity rating SORHA ([1]; 250 g ai/ha) | phytotoxicity rating DIGSA ([2]; 63 g ai/ha) | phytotoxicity rating DIGSA ([2]; 250 g ai/ha) | phytotoxicity rating CASOB ([3]; 63 g ai/ha) | phytotoxicity rating CASOB ([3]; 250 g ai/ha) | phytotoxicity rating IPOHE ([4]; 250 g ai/ha) | phytotoxicity rating SETVI ([5]; 63 g ai/ha) | phytotoxicity rating SETVI ([5]; 250 g ai/ha) | phytotoxicity rating CHEAL ([6]; 63 g ai/ha) | phytotoxicity rating CHEAL ([6]; 250 g ai/ha) | phytotoxicity rating ABUTH ([7]; 63 g ai/ha) | phytotoxicity rating ABUTH ([7]; 250 g ai/ha) | phytotoxicity rating ECHCG ([8]; 63 g ai/ha) | phytotoxicity rating ECHCG ([8]; 250 g ai/ha) | phytotoxicity rating RICE ([11]; 250 g ai/ha) | phytotoxicity rating CORN ([12]; 250 g ai/ha) | Post-emerge Herbicidal Activity IPOHE (phytotoxicity rating) ([16]; 250 g ai/ha) | Post-emerge Herbicidal Activity ABUTH (phytotoxicity rating) ([18]; 250 g ai/ha) | phytotoxicity rating AMARE ([21]; 63 g ai/ha) | phytotoxicity rating AMARE ([21]; 250 g ai/ha)
95: Post-emerge Herbicidal Activity AMARE (phytotoxicity rating) [19, 23]
50: Post-emerge Herbicidal Activity RICE (crop damage rating) ([9]; 63 g ai/ha)
90: Post-emerge Herbicidal Activity IPOHE (phytotoxicity rating) ([16]; 63 g ai/ha) | Post-emerge Herbicidal Activity ECHCG (phytotoxicity rating) ([20]; 250 g ai/ha)
75: Post-emerge Herbicidal Activity RICE (crop damage rating) ([9]; 250 g ai/ha) | Post-emerge Herbicidal Activity CASOB (phytotoxicity rating) ([15]; 250 g ai/ha)
70: Post-emerge Herbicidal Activity SORHA (phytotoxicity rating) ([13]; 250 g ai/ha)
10: phytotoxicity rating IPOHE ([4]; 63 g ai/ha) | Post-emerge Herbicidal Activity CASOB (phytotoxicity rating) ([15]; 63 g ai/ha)
0: Post-emerge Herbicidal Activity SORHA (phytotoxicity rating) ([13]; 63 g ai/ha) | Post-emerge Herbicidal Activity DIGSA (phytotoxicity rating) ([14]; 63 g ai/ha) | Post-emerge Herbicidal Activity SETVI (phytotoxicity rating) ([17]; 63 g ai/ha) | Post-emerge Herbicidal Activity ECHCG (phytotoxicity rating) ([20]; 63 g ai/ha)
15: Post-emerge Herbicidal Activity CORN (crop damage rating) ([10]; 63 g ai/ha)
99: phytotoxicity rating RICE ([11]; 63 g ai/ha)
80: Post-emerge Herbicidal Activity CORN (crop damage rating) ([10]; 250 g ai/ha) | phytotoxicity rating CORN ([12]; 63 g ai/ha) | Post-emerge Herbicidal Activity DIGSA (phytotoxicity rating) ([14]; 250 g ai/ha) | Post-emerge Herbicidal Activity SETVI (phytotoxicity rating) ([17]; 250 g ai/ha) | Post-emerge Herbicidal Activity ABUTH (phytotoxicity rating) ([18]; 63 g ai/ha)
20: Post-emerge Herbicidal Activity AMARE (phytotoxicity rating) [19, 22]
